In brackets after ≈: the same amount, converted by molar mass.
Legend:
acid ceramidase = target: T1, acid ceramidase (Homo sapiens, UniProt Q13510); experiment: Acid ceramidase inhibition, biochemical fluorescent assay with cell lysates overexpressing acid ceramidase, substrate Rbm14-12; details: substrate Rbm14-12 6.3 μM
T1 construct: Cell lysates overexpressing acid ceramidase were used as the enzyme source; expressed in transfected cells
T1 sequence (Q13510 22-395): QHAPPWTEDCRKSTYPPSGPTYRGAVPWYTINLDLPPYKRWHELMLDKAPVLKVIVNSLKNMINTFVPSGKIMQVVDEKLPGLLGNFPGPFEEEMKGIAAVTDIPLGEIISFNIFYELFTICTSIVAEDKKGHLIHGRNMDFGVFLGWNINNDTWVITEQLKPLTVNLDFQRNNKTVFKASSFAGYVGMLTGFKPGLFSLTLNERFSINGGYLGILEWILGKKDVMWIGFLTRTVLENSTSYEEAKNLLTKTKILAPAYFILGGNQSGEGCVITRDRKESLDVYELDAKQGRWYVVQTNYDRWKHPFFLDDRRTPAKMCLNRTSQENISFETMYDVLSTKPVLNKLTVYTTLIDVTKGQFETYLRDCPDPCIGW
Outline: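 IC50 derived by four-parameter fitting of fluorescence (ex360 nm, em446 nm) produced after 1 hr in methanol/NaIO4/glycine stop buffer, pH 10.6. Reaction: 6.3 μM Rbm14-12, 1 hr RT, following 1 hr RT compound preincubation with 10 μg overexpressing-cell lysate protein in pH 4.5 NaAC/NaCl buffer.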

[1] = Compound solubility in water
[2] = pH 4.5, 1 hr preincubation at RT

| Compound | IC50 (acid ceramidase; [2]) [nM] | solubility [1] [µg/mL] | IC50 (acid ceramidase; pH 4.5) [nM] |
| --- | --- | --- | --- |
| COc1nc2cccnc2n1C(=O)NCCCCn1ccc(C(C)(C)C)n1 [Example 135a, N-(4-(3-(tert-Butyl)-1H-pyrazol-1-yl)butyl)-2-methoxy-3H-imidazo[4,5-b]pyridine-3-carboxamide] | < 200 | 15 (≈ 40.5 µM) |  |
| CCCCNC(=O)n1cnc2cc(OC)ccc21 [Example 51a, N-Butyl-5-methoxy-1H-benzo[d]imidazole-1-carboxamide] | < 200 | 7.2 (≈ 29.1 µM) |  |
| CC(C)CCNC(=O)n1cnc2c(N3CCO[C@@H](Cc4ccccc4)C3)cccc21 [Example 174, (S)-4-(2-Benzylmorpholino)-N-iso-pentyl-1H-benzo[d]imidazole-1-carboxamide] |  | 1 (≈ 2.46 µM) | 200 to 1000 |
| CCCCNC(=O)n1c(OCC)nc2c(OC)cccc21 [Example 94, N-Butyl-2-ethoxy-4-methoxy-1H-benzo[d]imidazole-1-carboxamide] | 200 to 1000 | 11.2 (≈ 38.4 µM) |  |
| CC(C)C#CCNC(=O)n1cnc2c(N3CC(N(C)C)C3)cccc21 [Example 355, 4-(3-(Dimethylamino)azetidin-1-yl)-N-(4-methylpent-2-yn-1-yl)-1H-benzo[d]imidazole-1-carboxamide] | 200 to 1000 | 22 (≈ 64.8 µM) |  |
| COc1nc2cc(N3CCN(C)CC3)ccc2n1C(=O)NCCCc1ccccc1 [Example 194, 2-Methoxy-5-(4-methylpiperazin-1-yl)-N-(3-phenylpropyl)-1H-benzo[d]imidazole-1-carboxamide] |  | 30 (≈ 73.6 µM) | 200 to 1000 |
| COc1nc2cc(N3CCC4(CC3)COC4)ccc2n1C(=O)NCCCc1ccccc1 [Example 238b, 2-methoxy-N-(3-phenylpropyl)-5-(2-oxa-7-azaspiro[3.5]nonan-7-yl)-1H-benzo[d]-imidazole-1-carboxamide] |  | 12 (≈ 27.6 µM) | 200 to 1000 |
| O=C(NCCc1ccccc1)n1c(OC2CC2)nc2ccccc21 [Example 34, 2-Cyclopropoxy-N-phenethyl-1H-benzo[d]imidazole-1-carboxamide] | < 200 | 0.5 (≈ 1.56 µM) |  |
| COc1nc2c(N3CC(N4CCN(C)CC4)C3)cccc2n1C(=O)NCCOc1ccccc1 [Example 329, 2-Methoxy-4-(3-(4-methylpiperazin-1-yl)azetidin-1-yl)-N-(2-phenoxyethyl)-1H-benzo[d]imidazole-1-carboxamide] |  | 38 (≈ 81.8 µM) | > 1000 |
| CC(C)CCNC(=O)n1c(=O)n(C)c2cccnc21 [Example 104, N-iso-Pentyl-1-methyl-2-oxo-1,2-dihydro-3H-imidazo[4,5-b]pyridine-3-carboxamide] | 200 to 1000 | 17 (≈ 64.8 µM) |  |
| CN1[C@@H]2CC[C@H]1CN(c1cccc3c1ncn3C(=O)NCCCc1ccccc1)C2 [Example 240, 4-((1R,5S)-8-Methyl-3,8-diazabicyclo[3.2.1]octan-3-yl)-N-(3-phenylpropyl)-1H-benzo[d]imidazole-1-carboxamide] |  | 28 (≈ 69.4 µM) | 200 to 1000 |
| CC(C)C#CCNC(=O)n1cnc2c(N3CC4CCC3CN4C)cccc21 (stereo not shown) [Example 304, 4-(5-Methyl-2,5-diazabicyclo[2.2.2]octan-2-yl)-N-(4-methylpent-2-ynyl)-1H-benzo[d]imidazole-1-carboxamide] |  | 27 (≈ 73.9 µM) | 200 to 1000 |
| CCCCNC(=O)n1c(OC(C)C)nc2c(OC)cccc21 [Example 97a] | 200 to 1000 | 18 (≈ 58.9 µM) |  |
| O=C(NCCc1ccccc1)n1cnc2cc(-c3cncnc3)ccc21 [Example 8a, N-Phenethyl-5-(pyrimidin-5-yl)-1H-benzo[d]imidazole-1-carboxamide] | < 200 | 3.7 (≈ 10.8 µM) |  |
| CC#CCNC(=O)n1cnc2c(N3CCN(C)CC3)cccc21 [Example 281, N-(But-2-yn-1-yl)-4-(4-methylpiperazin-1-yl)-1H-benzo[d]imidazole-1-carboxamide] |  | 32 (≈ 103 µM) | 200 to 1000 |
| O=C(NCCCCc1ccccc1)n1cnc2c(N3CCC4(CC3)COC4)cccc21 [Example 217, N-(4-Phenylbutyl)-4-(2-oxa-7-azaspiro[3.5]nonan-7-yl)-1H-benzo[d]imidazole-1-carboxamide] |  | 0.6 (≈ 1.43 µM) | < 200 |
| COc1nc2ccc(-c3cncnc3)cc2n1C(=O)NC1CCCCC1 [Example 111a, N-Cyclohexyl-2-methoxy-6-(pyrimidin-5-yl)-1H-benzo[d]imidazole-1-carboxamide] | < 200 | 6 (≈ 17.1 µM) |  |
| CN1CC(N2CCN(c3cccc4c3ncn4C(=O)NCC#Cc3ccccc3)CC2)C1 [Example 333, 4-(4-(1-Methylazetidin-3-yl)piperazin-1-yl)-N-(3-phenylprop-2-yn-1-yl)-1H-benzo[d]imidazole-1-carboxamide] |  | 26 (≈ 60.7 µM) | < 200 |
| CCCCNC(=O)n1cnc2c(OC)cccc21 [Example 52, N-Butyl-4-methoxy-1H-benzo[d]imidazole-1-carboxamide] | < 200 | 23.2 (≈ 93.8 µM) |  |
| CC(C)CNC(=O)n1cnc2ccc(-c3cncs3)cc21 [Example 126b, N-iso-butyl-6-(thiazol-5-yl)-1H-benzo[d]imidazole-1-carboxamide] | 200 to 1000 | 14 (≈ 46.6 µM) |  |
| COc1nc2c(C#N)cccc2n1C(=O)NCCCCc1ccccc1 [Example 138, 4-Cyano-2-methoxy-N-(4-phenylbutyl)-1H-benzo[d]imidazole-1-carboxamide] | < 200 | 0.3 (≈ 0.861 µM) |  |
| COc1nc2c(N3CCOCC3)cncc2n1C(=O)NCCC(C)C [Example 211, N-iso-Pentyl-2-methoxy-7-morpholino-3H-imidazo[4,5-c]pyridine-3-carboxamide] |  | 26 (≈ 74.8 µM) | < 200 |

Second part, the compound after the results:

| IC50 (acid ceramidase; [2]) [nM] | solubility [1] [µg/mL] | IC50 (acid ceramidase; pH 4.5) [nM] | Compound |
| --- | --- | --- | --- |
|  | 28 (≈ 83 µM) | < 200 | CN1CCN(c2cccc3c2ncn3C(=O)NCC#CC2CC2)CC1 [Example 283, N-(3-Cyclopropylprop-2-ynyl)-4-(4-methylpiperazin-1-yl)-1H-benzo[d]imidazole-1-carboxamide] |
| > 1000 | 32.7 (≈ 92 µM) |  | CN1CCN(CCNC(=O)n2cnc3cc(C(F)(F)F)ccc32)CC1 [Example 78, N-(2-(4-Methylpiperazin-1-yl)ethyl)-5-(trifluoromethyl)-1H-benzo[d]imidazole-1-carboxamide] |
| 200 to 1000 | 37 (≈ 88.4 µM) |  | CN1CCN(C2CN(c3cccc4c3ncn4C(=O)NCCc3ccccc3)C2)CC1 [Example 349, 4-(3-(4-Methylpiperazin-1-yl)azetidin-1-yl)-N-phenethyl-1H-benzo[d]imidazole-1-carboxamide] |
|  | 27 (≈ 68.4 µM) | < 200 | CC(C)C#CCNC(=O)n1cnc2c(N3CC(N4CCN(C)CC4)C3)cccc21 [Example 298, N-(4-Methylpent-2-ynyl)-4-(3-(4-methyl-piperazin-1-yl)azetidin-1-yl)-1H-benzo[d]imidazole-1-carboxamide] |
| < 200 | 33 (≈ 78.7 µM) |  | CN1CC2(CCN(c3cccc4c3ncn4C(=O)NCCOc3ccccc3)CC2)C1 [Example 351, 4-(2-Methyl-2,7-diazaspiro[3.5]nonan-7-yl)-N-(2-phenoxyethyl)-1H-benzo[d]imidazole-1-carboxamide] |
|  | 25 (≈ 59.3 µM) | < 200 | O=C(NCCOc1ccccc1)n1cnc2c(N3CCN(C4COC4)CC3)cccc21 [Example 327, 4-(4-(Oxetan-3-yl)piperazin-1-yl)-N-(2-phenoxyethyl)-1H-benzo[d]imidazole-1-carboxamide] |
| 200 to 1000 | 17 (≈ 47.8 µM) |  | CC(C)CCNC(=O)n1cnc2c(N3CCN4CCCC4C3)cccc21 (stereo not shown) [Example 158, 4-(Hexahydropyrrolo[1,2-a]pyrazin-2(1H)-yl)-N-iso-pentyl-1H-benzo[d]imidazole-1-carboxamide] |
| 200 to 1000 | 10 (≈ 25.2 µM) |  | CC(C)CCNC(=O)n1cnc2c(N3CCN(CC(F)(F)F)CC3)cccc21 [Example 153, N-iso-Pentyl-4-(4-(2,2,2-trifluoroethyl)piperazin-1-yl)-1H-benzo[d]imidazole-1-carboxamide] |
|  | 39 (≈ 96.7 µM) | 200 to 1000 | CN1CC2CC1CN2c1cccc2c1ncn2C(=O)NCCC1CCC(F)(F)C1 (stereo not shown) [Example 293, N-(2-(3,3-difluorocyclopentyl)ethyl)-4-(5-methyl-2,5-diazabicyclo[2.2.1]heptan-2-yl)-1H-benzo[d]imidazole-1-carboxamide] |
|  | 18 (≈ 52.4 µM) | > 1000 | CC(C)CCNC(=O)n1cnc2c(N3CCN(C)CC3=O)cccc21 [Example 162, N-iso-Pentyl-4-(4-methyl-2-oxopiperazin-1-yl)-1H-benzo[d]imidazole-1-carboxamide] |
|  | 24 (≈ 61.3 µM) | 200 to 1000 | CN1CCN(c2cccc3c2ncn3C(=O)NCC2CCC(F)(F)CC2)CC1 [Example 256, N-((4,4-Difluorocyclohexyl)methyl)-4-(4-methylpiperazin-1-yl)-1H-benzo[d]imidazole-1-carboxamide] |
|  | 20 (≈ 45.7 µM) | < 200 | CC(=O)N1CCN(c2cccc3c2ncn3C(=O)NCCCC2(C(F)(F)F)CC2)CC1 [Example 235, 4-(4-Acetylpiperazin-1-yl)-N-(3-(1-(trifluoromethyl)cyclopropyl)propyl)-1H-benzo[d]imidazole-1-carboxamide] |
|  | 30 (≈ 81.4 µM) | 200 to 1000 | CC(C)CCNC(=O)n1cnc2c(N3CCN(CCC#N)CC3)cccc21 [Example 200, 4-(4-(2-Cyanoethyl)piperazin-1-yl)-N-iso-pentyl-1H-benzo[d]imidazole-1-carboxamide] |
